Like-named read-outs stand apart in the source and are kept apart here.
What was measured:
[1] = tested on: murine polychromatic erythrocytes; conditions: for PCE/NCE ratio: cyclophosphamide 8 mg/mL, 12.5 ml/kg i.p. on day 2
Method: The mammalian in vivo micronucleus test is used for the identification of substances which cause damage to chromosomes or the mitotic apparatus of murine polychromatic erythrocytes. This damage results in the formation of “micronuclei,” intracellular structures containing lagging chromosome fragments or isolated whole chromosomes. […] The positive control mice received a single intraperitoneal injection of cyclophosphamide (8 mg/mL, 12.5 ml/kg) on day 2. All mice were observed immediately after injection for any adverse reactions. […] On day 3, all mice were weighed and terminated.
The femurs were excised from the terminated mice, the bone marrow was extracted, and duplicate smear preparations were performed for each mouse. The bone marrow slides for each animal were read at 40× magnification. The ratio of polychromatic erythrocytes (PCE) to normochromatic erythrocytes (NCE), an index of bone marrow toxicity, was determined for each mouse by counting a total of at least 200 erythrocytes. Then a minimum of 2000 scoreable PCE per mouse were evaluated for the incidence of micronucleated polychromatic erythrocytes. Statistical analysis of the data were done using the Mann and Whitney test (at 5% risk threshold) from a statistical software package (Statview 5.0, SAS Institute Inc., USA).

[2] = tested on: primary HDF cultures; conditions: human, 1 month, 5 μM
[3] = tested on: 8-OHdG adducts in HDFs; conditions: human, 30 min, 500 μM
Method: DNA was extracted right after the exposure (T0, white bars) or three hours after the challenge period (T3, black bars). DNA was digested and the 8-OHdG adducts were measured by ELISA kit as per the manufacturer's instructions. Values are shown (ng/mL) as mean±SD (n=3).

O=P1(N(CCCl)CCCl)NCCCO1 (centres unmarked) [cyclophosphamide]
PCE/NCE ratio ([1]; females): 0.73
number of polychromatic erythrocytes bearing micronuclei ([1]; males, ORP water solution = Microcyn 10%, 12.5 ml/kg i.p.): 11.0
PCE/NCE ratio ([1]; males): 0.77

OO [HP, hydrogen peroxide]
cells with increased SA-β-Gal expression [2]: 86%
increase of 8-OHdG adducts relative to control-treated or ORP water solution-treated cells [3]: about 25 fold
